“Also recorded” adds a separate entry of the source.

One experiment addresses T1, CYP17 (Homo sapiens, UniProt P05093).
T1 sequence (P05093 1-508): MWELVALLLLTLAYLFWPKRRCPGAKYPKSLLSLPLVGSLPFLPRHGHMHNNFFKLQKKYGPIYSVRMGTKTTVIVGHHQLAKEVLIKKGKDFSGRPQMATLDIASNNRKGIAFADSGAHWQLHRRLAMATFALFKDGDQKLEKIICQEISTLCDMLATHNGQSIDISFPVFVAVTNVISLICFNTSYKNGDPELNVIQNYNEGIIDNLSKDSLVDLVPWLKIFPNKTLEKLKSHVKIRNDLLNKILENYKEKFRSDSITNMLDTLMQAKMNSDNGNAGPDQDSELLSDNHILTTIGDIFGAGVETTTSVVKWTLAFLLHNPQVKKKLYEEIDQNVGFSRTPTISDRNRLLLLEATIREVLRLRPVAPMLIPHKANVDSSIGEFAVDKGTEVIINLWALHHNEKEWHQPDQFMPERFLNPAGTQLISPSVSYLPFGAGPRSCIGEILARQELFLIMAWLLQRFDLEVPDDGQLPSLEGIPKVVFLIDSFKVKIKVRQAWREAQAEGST
Nature of the experiment: CYP17 inhibition, acetic acid releasing assay with intact P450c17-expressing E. coli.

For experiment [1], the system named is LAPC4 human prostate tumor xenograft. Nature of the experiment: LAPC4 xenograft, first experiment (established tumors, 4 weeks of treatment). The experiment is classed as in vivo, mouse. The settings on record: 28 days. As to the method:
In the first experiment, the effect of compounds 5 and 6 on the growth of well-established LAPC4 prostate cancer tumors in SCID mice is determined, and castration is used as the reference treatment. Tumor-bearing mice are assigned (n=5/group) to receive one of two doses of 5 or 6 (0.15 mmol/kg once-daily or 0.15 mmol/kg twice-daily). Tumor volumes are measured weekly and compared with controls receiving vehicle or castrated mice.
In Vivo Antitumor Studies (LAPC-4 Prostate Cancer Xenografts): All animal studies are performed according to the guidelines and approval of the Animal Care Committee of the University of Maryland School of Medicine, Baltimore. Male severe combined immunodeficient (SCID) mice 4-6 weeks of age purchased from the National Cancer Institute-Frederick Cancer Research and Development Center (Fredrick, Md.) are housed in a pathogen-free environment under controlled conditions of light and humidity and allowed free access to food and water. Tumors are developed from LAPC4 cells inoculated subcutaneously (s.c.) in the mice essentially as previously described (21). LAPC4 cells are grown in IMEM with 15% FBS plus 1% PS and 10 nm DHT until 80% confluent. Cells are scraped into DPBS, collected by centrifugation, and resuspended in Matrigel (10 mg/ml) at 3×10^7 cells/ml. Mice are injected s.c. with 100 μl of the cell suspension at one site on each flank. Tumors are measured weekly with calipers, and tumor volumes are calculated by the formula: […]).
In the first experiment, LAPC4 tumors are allowed to grow for 8-10 weeks following inoculation. […] Mice are castrated under methoxyfluorane anesthesia. Compounds 5 and 6 were prepared at 17.2 mg/ml in a 0.3% solution of hydroxypropyl cellulose in saline, and mice receiv s.c. injections daily. Control and castrated mice are treated with vehicle only. Tumors are measured weekly for the 4 weeks of treatment and tumor volumes are calculated. At the end of the treatment period, the animals are sacrificed under halothane anesthesia; tumors are excised, weighed and stored at −80° C. Animals are also weighed weekly and monitored for general health status and signs of possible toxicity due to treatment.
FIG. 6: In vivo antitumor activity of 5, 6 and orchidectomy on the growth of LAPC4 prostate tumors in male SCID mice. Groups of five mice with LAPC-4 tumors were treated with 5 (0.15 mmol/kg/day or 0.30 mmol/kg/day. Tumors volumes were measured weekly, and the percentage of change in tumor volume was determined after 28 days of treatment. The standard deviations of tumor volumes (not shown) were ±10-12% of the mean values.

The target in experiment [2] is T2, human 5α-reductase type 2 (Homo sapiens, UniProt P31213).
T2 sequence (P31213 1-254): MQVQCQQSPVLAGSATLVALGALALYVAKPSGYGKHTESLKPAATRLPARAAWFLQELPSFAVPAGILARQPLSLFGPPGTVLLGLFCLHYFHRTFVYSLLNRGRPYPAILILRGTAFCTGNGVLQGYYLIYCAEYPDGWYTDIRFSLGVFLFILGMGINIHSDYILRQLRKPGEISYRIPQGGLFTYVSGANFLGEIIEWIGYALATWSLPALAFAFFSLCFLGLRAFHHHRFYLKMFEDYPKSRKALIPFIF
Nature of the experiment: Human 5α-reductase type 2 assay (BPH tissue homogenate).

By IC50 is commonly meant the concentration that gives 50% inhibition. For orientation: inhibition means the relative decrease from the control value, in per cent. Take `C[C@]12CC[C@H](O)CC1=CC[C@@H]1[C@@H]2CC[C@]2(C)C(n3cnc4ccccc43)=CC[C@@H]12` [Compound 5, 3β-Hydroxy-17-(1H-benzimidazol-1-yl)androsta-5,16-diene]: on CYP17, the IC50 came out at 0.3 µM. Further, the entries for the “reduction of average final tumor volume compared to vehicle-treated control” value in experiment [1] (0.15 mmol/kg once daily s.c.) and in experiment [1] (0.15 mmol/kg twice daily s.c.) were 41% and 86.5%, respectively. For the same molecule, the inhibition at 10 µM in experiment [2] (read-out: 5α-Reductase type 2 % inhibition at 10 μM) came out at 53%.
As for `C[C@]12CCC(=O)C=C1CC[C@@H]1[C@@H]2CC[C@]2(C)C(n3cnc4ccccc43)=CC[C@@H]12` [Compound 6, 17-(1H-benzimidazol-1-yl)androsta-4,16-diene-3-one], the IC50 against CYP17 was found to be 0.915 µM; in experiment [2], 0.48 µM. Further, the “reduction of average final tumor volume compared to vehicle-treated control” value is “ineffective” in experiment [1] (0.15 mmol/kg once daily s.c.) and “stimulation of tumor growth; also recorded: enhances tumor growth” in experiment [1] (0.15 mmol/kg twice daily s.c.).

Source of the values: patent US7875599B2, “C-17-heteroaryl steroidal CYP17 inhibitors/antiandrogens, in vitro biological activities, pharmacokinetics and antitumor activity” (University of Maryland, priority 2005, dated 2011).
